ChEMBL document CHEMBL1201862, “PubChem BioAssay data set” (2004)
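Protocol summary: plate cells (96-well), add compound at 5 concentrations, incubate 48 h, interpolate endpoints linearly. At the GI50, growth is halved.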 Activity calls are given as the source filed them. No stated cut-off is given here; in the data, active = GI50 up to about 1.1 µM and inactive = higher.

What was measured:
Test in all cases: NCI anticancer screen, dose series, 48 h
[1] = tested on: SF-539
[2] = tested on: Malme-3M
[3] = tested on: OVCAR-8
[4] = tested on: M14
[5] = tested on: SN12C
[6] = tested on: CAKI-1
[7] = tested on: SK-MEL-28
[8] = tested on: K562
[9] = tested on: CCRF-CEM
[10] = tested on: HCC 2998
[11] = tested on: RXF 393
[12] = tested on: ACHN
[13] = tested on: HOP-92
[14] = tested on: HCT-116
[15] = tested on: NCI-H226
[16] = tested on: NCI/ADR-RES
[17] = tested on: MDA-MB-231
[18] = tested on: DU-145
[19] = tested on: Hs-578T

Measured: GI50

COc1ccc2n[se]nc2c1
inactive: [1] 23.1 µM | [2] 65.8 µM | [3] > 100 µM | [4] > 100 µM | [5] > 100 µM | [6] > 100 µM | [7] > 100 µM | [8] > 100 µM | [9] > 100 µM | [10] 38.6 µM | [11] 48.4 µM | [12] > 100 µM

N#CCN1CCOCCOCCN(CC#N)CCOCCOCC1
inactive: [1] > 100 µM | [2] > 100 µM | [3] > 100 µM | [4] > 100 µM | [5] > 100 µM | [6] > 100 µM | [7] > 100 µM | [8] > 100 µM | [9] > 100 µM | [10] > 100 µM | [11] > 100 µM | [13] > 100 µM | [12] > 100 µM | [14] > 100 µM | [15] > 100 µM

O=C(O)CN(c1ccccc1)S(=O)(=O)c1ccccc1[N+](=O)[O-]
inactive: [1] > 100 µM | [2] > 100 µM | [3] > 100 µM | [4] > 100 µM | [5] > 100 µM | [6] > 100 µM | [7] > 100 µM | [8] > 10 µM | [9] > 100 µM | [11] > 100 µM | [13] > 100 µM | [12] > 100 µM | [15] > 100 µM

CC(C)N1CN(C(C(=O)N[C@@H]2C(=O)N3C2SC(C)(C)C3C(=O)O)c2ccccc2)CSC1=S (stereo not given in full)
inactive: [1] > 100 µM | [2] > 100 µM | [3] > 100 µM | [4] > 100 µM | [5] > 100 µM | [6] > 100 µM | [7] > 100 µM | [8] 30.6 µM | [9] > 100 µM | [13] > 100 µM | [12] > 100 µM | [14] > 100 µM

O=NNc1cnc(O)nc1O
inactive: [1] > 100 µM | [2] > 100 µM | [16] > 100 µM | [3] > 100 µM | [4] > 100 µM | [5] > 100 µM | [6] > 100 µM | [7] > 100 µM | [17] > 100 µM | [8] > 100 µM | [9] > 100 µM | [10] > 100 µM | [11] > 100 µM | [13] > 100 µM | [12] > 100 µM | [14] > 100 µM | [18] > 100 µM | [15] > 100 µM

O=C(CSc1nnc(Cc2ccccc2)o1)Nc1ccc(Cl)cc1
inactive: [1] > 100 µM | [2] > 100 µM | [3] 96.6 µM | [4] > 100 µM | [5] > 100 µM | [6] 59.2 µM | [7] > 100 µM | [8] 87.7 µM | [9] > 100 µM | [10] > 100 µM | [11] > 100 µM | [12] 75.9 µM | [14] > 100 µM | [15] 86.5 µM

CCOP(=O)(OCC)C(c1ccccc1)N(C(=O)NC(F)(F)F)c1cccc(F)c1 (stereo not given)
inactive: [1] > 100 µM | [19] 78.3 µM | [2] > 100 µM | [16] 58.9 µM | [3] > 100 µM | [4] > 100 µM | [5] > 100 µM | [6] > 100 µM | [7] > 100 µM | [17] > 100 µM | [8] 63.8 µM | [9] > 100 µM | [10] 55.8 µM | [11] 64.7 µM | [12] > 100 µM | [14] > 100 µM | [18] > 100 µM | [15] > 100 µM

COC(=O)C(/C(=N\O)C(=O)Nc1ccc(Br)cc1)c1nc2ccccc2nc1O (stereo not given)
inactive: [1] 24.4 µM | [2] 45.1 µM | [3] > 100 µM | [4] 58.9 µM | [5] 35.8 µM | [6] > 100 µM | [7] 36.7 µM | [8] 26.4 µM | [9] 25.3 µM | [10] 92 µM | [11] 36.7 µM | [13] 35.4 µM | [12] 49.2 µM | [14] 55.8 µM | [15] 29 µM

C#CC1/C(=C\C(=O)OC)CCCC1O (stereo not given)
inactive: [1] > 100 µM | [2] > 100 µM | [3] > 100 µM | [4] > 100 µM | [5] > 100 µM | [6] > 100 µM | [8] > 100 µM | [9] > 100 µM | [10] > 100 µM | [11] > 100 µM | [13] > 100 µM | [12] > 100 µM | [14] > 100 µM | [15] > 100 µM

OC(c1ccccc1)(c1ccccc1)c1cccnc1
inactive: [1] > 100 µM | [2] > 100 µM | [3] > 100 µM | [4] > 100 µM | [5] > 100 µM | [6] > 100 µM | [7] > 100 µM | [8] > 100 µM | [9] > 100 µM | [10] > 100 µM | [12] > 100 µM | [14] > 100 µM | [15] > 100 µM

Cc1cn(C2CC(N(O)C(N)=O)C(CO)O2)c(=O)[nH]c1=O (stereo not given)
inactive: [1] > 100 µM | [2] > 100 µM | [16] > 100 µM | [3] > 100 µM | [4] > 100 µM | [5] > 100 µM | [6] > 100 µM | [7] > 100 µM | [17] > 100 µM | [8] > 100 µM | [11] > 100 µM | [13] > 100 µM | [12] > 100 µM | [14] > 100 µM | [18] > 100 µM

O=c1[nH]c(=O)n(COCc2ccccc2)c2ccc([N+](=O)[O-])cc12
inactive: [1] > 100 µM | [16] 4.85 µM | [3] 35.2 µM | [4] > 100 µM | [5] > 100 µM | [6] > 100 µM | [7] > 100 µM | [17] > 100 µM | [8] > 100 µM | [9] > 100 µM | [10] > 100 µM | [11] > 100 µM | [13] > 100 µM | [12] 25.6 µM | [14] > 100 µM | [18] > 100 µM | [15] > 100 µM

CN1CCN(CN2C(=O)C3C4C=CC(C3C2=O)C2C3C(=O)N(CN5CCN(C)CC5)C(=O)C3C42)CC1 (stereo not given)
inactive: [1] 22.2 µM | [3] 17.7 µM | [4] 16.4 µM | [5] 20.3 µM | [7] 23.5 µM | [8] 26.9 µM | [9] 29.2 µM | [10] 34.7 µM | [11] 22.9 µM | [12] 28.2 µM | [14] 16.5 µM

C[P+](C)(CC(F)(F)F)c1ccccc1
inactive: [1] > 100 µM | [2] > 100 µM | [3] > 100 µM | [4] > 100 µM | [5] > 100 µM | [8] > 100 µM | [9] > 100 µM | [10] > 100 µM | [11] > 100 µM | [12] > 100 µM | [14] > 100 µM | [15] > 100 µM

COc1ccc(NC(=O)c2cc(OC)c(OC)c(OC)c2)cc1
inactive: [1] 48 µM | [2] 41.6 µM | [3] 74.6 µM | [4] 88.1 µM | [5] 55 µM | [6] 66.4 µM | [7] 29 µM | [8] 24.7 µM | [9] 37.8 µM | [10] 42.2 µM | [11] 31.3 µM | [13] > 100 µM | [12] 83.8 µM | [14] 36.7 µM | [15] > 78.3 µM

COc1cc(OC)c2c(=O)c3c([N+](=O)[O-])cccc3n(C)c2c1
inactive: [1] > 100 µM | [2] > 100 µM | [3] > 100 µM | [4] > 100 µM | [5] > 100 µM | [6] > 100 µM | [7] > 100 µM | [8] > 100 µM | [9] > 100 µM | [10] > 100 µM | [11] > 100 µM | [13] > 100 µM | [12] > 100 µM | [14] > 100 µM | [15] > 100 µM

COc1ccc(/C=C2\CCC(C)(CN(C)C)C2=O)cc1OC (stereo not given)
inactive: [1] > 100 µM | [2] > 100 µM | [3] > 100 µM | [4] > 100 µM | [5] > 100 µM | [6] > 100 µM | [7] > 100 µM | [8] > 100 µM | [9] > 100 µM | [10] > 100 µM | [11] > 100 µM | [13] > 100 µM | [12] > 100 µM | [14] > 100 µM | [15] > 100 µM

O=[N+]([O-])C(/C=N/Nc1ccccc1)/C=N/Nc1ccccc1
inactive: [1] > 100 µM | [2] > 100 µM | [3] > 100 µM | [4] > 100 µM | [5] > 100 µM | [6] > 100 µM | [7] > 100 µM | [8] > 100 µM | [9] > 100 µM | [10] > 100 µM | [11] > 100 µM | [13] > 100 µM | [12] > 100 µM | [14] > 100 µM | [15] > 100 µM

CNC(=O)CN(CC(=O)O)C(=O)NC
inactive: [1] > 100 µM | [2] > 100 µM | [3] > 100 µM | [4] > 100 µM | [6] > 100 µM | [8] > 100 µM | [9] > 100 µM | [10] > 100 µM | [11] > 100 µM | [13] > 100 µM | [12] > 100 µM
